The values that follow come from US20080200439A1, “Methods and compositions for modulating BK channel activity and vasodilation” (University of Tennessee Research Foundation, priority 2006, published 2008).

Assay [1] concerns pressurized resistance cerebral arteries. The experiment in a line: Artery diameter measurement, pressurized rat middle cerebral arteries. Conditions: for Integral (area under the curve) from the time of drug application until complete washout of effect: change in diameter as a function of time; for Effect remaining after ~6 min of washout (percentual increase from diameter before agent application): when vehicle effect had totally vanished. On the procedure: (§1) Artery Diameter Measurement. Middle cerebral arteries were isolated from adult male Sprague-Dawley rats (=250 g) or 8- to 12-week-old β1-knockout and C57BL/6 control mice. Rats and mice were decapitated using a guillotine and sharp scissors, respectively. These procedures were approved by the Institutional Animal Care and Use Committee from The University of Tennessee Health Science Center, an AMLAC-accredited institution. Pressurization of arteries was performed as described (Liu et al., 2004). Endothelium was removed by passing an air bubble into the vessel lumen for 90 sec. Diameter changes were monitored through an inverted microscope (Nikon Eclipse TS100, Nikon Corp., Tokyo, Japan), recorded on camera (Sanyo VCB-3512T, Sanyo Electric Corp., Japan), and transferred to a computer. Diameter data were acquired and analyzed using IonWizard 4.4 software (IonOptics Corp., Milton, Mass., United States of America).
Pressurized arteries were extraluminally perfused with physiological saline solution (PSS) (Liu et al., 2004) at a constant rate of 3.75 ml/min using a peristaltic pump Dynamax RP-1 (Rainin Instrument, Inc., Oakland, Calif., United States of America). At this rate, complete washout of the iberiotoxin (Ibtx) effect required >45 min. To keep basal tone under steady behavior, we shortened this period by increasing flow rate ˜3 times during washout of Ibtx, which sometimes evoked a flow-induced dilation (FIG. 1A). Equal volumes (25 ml) of vehicle- vs. LC-containing solutions were applied at equal, constant rate (see above) to the pressurized arterial segment in the chamber via a gravity system. Drugs were dissolved to make stock solutions (see Chemicals) and diluted in PSS to final concentration.
Chemicals. All chemicals were purchased from Sigma (St. Louis, Mo., United States of America), with the exception of 5β-cholanic acid 3α-ol (LC) (Steraloids, Inc., Newport, R.I., United States of America) and Ibtx (Alomone Labs Ltd., Jerusalem, Israel). On the day of the experiment, an LC stock solution (333 mM) in dimethyl sulfoxide (DMSO) was freshly prepared by sonication for 5 min. For arterial tone experiments, the LC stock was diluted 1/10 in DMSO and further diluted in PSS to render final LC concentration. Solution containing vehicle (0.1% DMSO; V/V) was used as control perfusion. For electrophysiological recordings, the LC stock solution was diluted 1/10 in 95% ethanol and further diluted with bath solution to render final LC concentration (3-1,000 μM). The DMSO/ethanol vehicle (≦0.1/≦0.86% final concentrations) in bath solution was used as control.
Data Analysis. Artery diameter response to each compound is shown as a percentage of the diameter obtained before compound application. Arterial diameter and electrophysiological data were analyzed with IonWizard 4.4 (IonOptics Corp., Milton, Mass., United States of America) and pCLAMP 8.0 (Molecular Devices, Union City, Calif., United States of America). Further analysis, plotting, and fitting were conducted using Origin 7.0 (Originlab Corp., Northampton, Mass., United States of America) and InStat 3.0 (GraphPad Software Inc., San Diego, Calif., United States of America).
After myogenic tone development at 60 mm Hg, intact arteries reached a diameter of 154.4±5.2 μm (n=17). Maximal contraction and dilation were checked by perfusing the vessel with 60 mM KCl at the beginning, and Ca^2+-free solution at the end of each experiment (FIGS. 1A & 1B). In all cases (n=17), application of 45 μM LC, that is, concentrations well below LC's critical micellar concentration (CMC) (≧1 mM under our recording conditions) (Roda et al., 1995) caused a significant increase in peak arterial diameter: +6% on top of a transient increase in diameter caused by vehicle-containing solution (FIGS. 1A-1C). […]

Assay [2] deals with pressurized cerebral arteries from wt mice. Put plainly: Artery diameter measurement, pressurized cerebral arteries from wt C57BL/6 mice. The arrangement: species or system mouse. As for the experimental part: as §1, with “America). […]” for “America).”
Data Analysis. […] Arterial diameter and electrophysiological data were analyzed with IonWizard 4.4 (IonOptics Corp., Milton, Mass., United States of America) and pCLAMP 8.0 (Molecular Devices, Union City, Calif., United States of America). […]
To determine the impact of LC targeting of BK β1-subunits on organ function, LC action on the arterial diameter of pressurized cerebral arteries was evaluated from β1-knockout vs. wt C57BU6 mice (controls). […]

[3] abbreviates: 45 μM, listed as Lithocholic acid.

As to `C[C@H](CCC(=O)O)[C@H]1CC[C@H]2[C@@H]3CC[C@@H]4C[C@H](O)CC[C@]4(C)[C@H]3CC[C@]12C` [LC, 5β-cholanic acid 3α-ol], the “Change in diameter caused by LC in the presence of Ibtx” value in assay [1] (45 μM LC + 55 nM Ibtx) is −3.4%. Besides, the “Change in peak diameter caused by LC in the presence of 4-AP (over pre-LC values)” value in assay [1] (45 μM LC + 0.8 mM 4-AP) is “+6%”. For the same compound, the “Integral (area under the curve) from the time of drug application until complete washout of effect” value is given as 18,369±3,964 in assay [1] (45 μM) and 18,369 ± 3,964 in assay [1] (setting [3]). In addition, the “Expected increase in cerebral blood flow (CBF)” value in assay [1] (45 μM, from diameter change by a factor of ~3 (Gourley and Heistad, 1984)) is about 30%. Besides, the “Increase in peak arterial diameter on top of the transient increase caused by vehicle” value in assay [1] (45 μM, intact arteries) is listed as “+6%”. Further, in assay [1] (45 μM, intact arteries with myogenic tone at 60 mm Hg), the Rise time turned out to be 231.9 ± 21.9 s. In addition, the “Effect remaining after ~6 min of washout (percentual increase from diameter before agent application)” value is recorded as 109.9±1.7% in assay [1] (45 μM) and 109.9 ± 1.7 % in assay [1] (setting [3]). Also, the Emax at 45 µM in assay [1] (Rattus norvegicus, 45 μM, intact arteries, read-out: Maximal effect (% from diameter before compound application)) is 117 ± 1.9%. Also, the “Increase in diameter from initial diameter” value in assay [2] (45 μM, wt mouse cerebral arteries) was “+4.4±0.9%”.

Turning to “iberiotoxin (QFTDVDCSVSKECWSVCKDLFGVDRGKCMGKKCRCYQ; UniProt P24663 1-37, looked up) [Ibtx, reference compound]”, in assay [1] (55 nM, bath application), the “Decrease in diameter of intact arteries” value is listed as −11.8±3.4%. The “Decrease from initial diameter (vasoconstriction)” value in assay [2] (55 nM, within 15 min of application, control mice) is −8.7±4.2%.
